Experimental data published in US20070249670A1, “Glycogen Phosphorylase Inhibitor Compounds and Pharmaceutical Compositions Thereof” (SMITHKLINE BEECHAM CORPORATION, priority 2004, published 2007).
pIC50: −log10 of the molar value.

Biological target: T1, human liver glycogen phosphorylase a (HLGPa) (Homo sapiens, UniProt P06737)
T1 construct: creating a full-length cDNA fused at the 5′ end to codons for methionine-glycine-alanine-histidine; 6xHis tag (leader Met-Gly-Ala-His6-Gly-Gly) (N); made in house; host or cells: E. coli (bacterial expression plasmid pTXK1007LTev)
T1 sequence (P06737 2-847 limits assumed): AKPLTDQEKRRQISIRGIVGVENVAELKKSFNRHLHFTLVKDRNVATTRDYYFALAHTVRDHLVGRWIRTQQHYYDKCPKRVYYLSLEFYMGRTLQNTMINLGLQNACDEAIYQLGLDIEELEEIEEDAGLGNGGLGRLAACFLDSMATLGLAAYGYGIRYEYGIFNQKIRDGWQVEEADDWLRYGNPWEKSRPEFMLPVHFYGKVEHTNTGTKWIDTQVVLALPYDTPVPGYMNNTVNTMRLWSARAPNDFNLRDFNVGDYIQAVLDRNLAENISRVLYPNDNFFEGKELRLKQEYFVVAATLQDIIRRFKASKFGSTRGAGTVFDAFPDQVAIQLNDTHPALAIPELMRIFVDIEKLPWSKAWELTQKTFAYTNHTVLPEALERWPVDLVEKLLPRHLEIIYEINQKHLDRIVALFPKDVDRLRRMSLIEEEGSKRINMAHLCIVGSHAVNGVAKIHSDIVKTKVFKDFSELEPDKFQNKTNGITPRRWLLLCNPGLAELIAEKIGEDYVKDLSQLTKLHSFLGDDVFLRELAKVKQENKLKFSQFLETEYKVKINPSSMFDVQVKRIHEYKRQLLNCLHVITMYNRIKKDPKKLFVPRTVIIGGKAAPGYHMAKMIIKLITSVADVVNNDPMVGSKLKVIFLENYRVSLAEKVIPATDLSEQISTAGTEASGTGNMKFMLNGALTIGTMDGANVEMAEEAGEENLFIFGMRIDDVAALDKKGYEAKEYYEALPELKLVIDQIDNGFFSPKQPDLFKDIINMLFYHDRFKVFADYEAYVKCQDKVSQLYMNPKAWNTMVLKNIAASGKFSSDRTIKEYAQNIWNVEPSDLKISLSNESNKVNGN
Experiment: Human liver glycogen phosphorylase a enzymatic activity assay (coupled, fluorescent resorufin readout, with and without 10 mM glucose)
Assay type: biochemical
Conditions: human liver glycogen phosphorylase a; table does not say whether with or without 10 mM glucose

| pIC50 | SMILES |
| --- | --- |
| 7.89 | COc1ccc(-c2ccc(C(=O)N[C@H](C(=O)O)[C@@H](C)OC(C)(C)C)c(NC(=O)Nc3c(C)cc(C)cc3C)c2)cc1F [Example 235, O-(1,1-Dimethylethyl)-N-{[3′-fluoro-4′-(methyloxy)-3-({[(2,4,6-trimethylphenyl)amino]carbonyl}amino)-4-biphenylyl]carbonyl}-L-threonine] |
| 8.40 | CCCc1cc(C)c(NC(=O)Nc2cc(-c3ccc(OC)cc3)ccc2C(=O)N[C@H](C(=O)O)[C@@H](C)OC(C)(C)C)c(C)c1 [Example 236, O-(1,1-Dimethylethyl)-N-{[3-({[(2,6-dimethyl-4-propylphenyl)amino]carbonyl}amino)-4′-(methyloxy)-4-biphenylyl]carbonyl}-L-threonine] |
| 7.70 | COc1ccc(-c2ccc(C(=O)N[C@H](C(=O)O)C3CCCCC3)c(NC(=O)Nc3c(C)cc(C)cc3C)c2)cc1F [Example 237, (2S)-Cyclohexyl({[3′-fluoro-4′-(methyloxy)-3-({[(2,4,6-trimethylphenyl)amino]carbonyl}amino)-4-biphenylyl]carbonyl}amino)ethanoic acid] |
| 8.00 | COc1ccc(-c2ccc(C(=O)NC3(C(=O)O)CCCCCCC3)c(NC(=O)Nc3c(C)cc(C)cc3C)c2)cc1F [Example 238, 1-({[3′-Fluoro-4′-(methyloxy)-3-({[(2,4,6-trimethylphenyl)amino]carbonyl}amino)-4-biphenylyl]carbonyl}amino)cyclooctanecarboxylic acid] |
| 5.62 | COc1ccc(NC(=O)Nc2cc3ccccc3cc2C(=O)N[C@H](C(=O)O)C2CCCCC2)c(OC)c1 [Example 239, (2S)-[({3-[({[2,4-bis(methyloxy)phenyl]amino}carbonyl)amino]-2-naphthalenyl}carbonyl)amino](cyclohexyl)ethanoic acid] |
| 5.09 | O=C(Nc1cc(C(F)(F)F)cc(C(F)(F)F)c1)Nc1cc2ccccc2cc1C(=O)N[C@H](C(=O)O)C1CCCCC1 [Example 240, (2S)-[({3-[({[3,5-bis(trifluoromethyl)phenyl]amino}carbonyl)amino]-2-naphthalenyl}carbonyl)amino](cyclohexyl)ethanoic acid] |
| 5.44 | Cc1cccc(C)c1NC(=O)Nc1cc2ccccc2cc1C(=O)N(CC(=O)O)Cc1ccccn1 [Example 241, N-{[3-({[(2,6-dimethylphenyl)amino]carbonyl}amino)-2-naphthalenyl]carbonyl}-N-(2-pyridinylmethyl)glycine] |
| 5.54 | O=C(O)CN(Cc1ccccn1)C(=O)c1cc2ccccc2cc1NC(=O)Nc1c(Cl)cc(Cl)cc1Cl [Example 242, N-(2-pyridinylmethyl)-N-{[3-({[(2,4,6-trichlorophenyl)amino]carbonyl}amino)-2-naphthalenyl]carbonyl}glycine] |
| 5.75 | Cc1cccc(C)c1NC(=O)Nc1cc2ccccc2cc1C(=O)N(CC(=O)O)CC1CCCCC1 [Example 243, N-(cyclohexylmethyl)-N-{[3-({[(2,6-dimethylphenyl)amino]carbonyl}amino)-2-naphthalenyl]carbonyl}glycine] |
| 6.01 | Cc1cccc(C)c1NC(=O)Nc1cc2ccccc2cc1C(=O)N(CC(=O)O)C1CCCC1 [Example 244, N-cyclopentyl-N-{[3-({[(2,6-dimethylphenyl)amino]carbonyl}amino)-2-naphthalenyl]carbonyl}glycine] |
| 5.67 | Cc1cccc(C)c1NC(=O)Nc1cc2ccccc2cc1C(=O)N(CC(=O)O)C1CCCCC1 [Example 245, N-cyclohexyl-N-{[3-({[(2,6-dimethylphenyl)amino]carbonyl}amino)-2-naphthalenyl]carbonyl}glycine] |
| 5.67 | Cc1cccc(C)c1NC(=O)Nc1cc2ccccc2cc1C(=O)N(CC(=O)O)CC(=O)O [Example 246, 2,2′-({[3-({[(2,6-dimethylphenyl)amino]carbonyl}amino)-2-naphthalenyl]carbonyl}imino)diacetic acid] |
| 4.98 | CCCCc1ccc(NC(=O)Nc2cc3ccccc3cc2C(=O)N[C@H](C(=O)O)C2CCCCC2)cc1 [Example 247, (2S)-({[3-({[(4-butylphenyl)amino]carbonyl}amino)-2-naphthalenyl]carbonyl}amino)(cyclohexyl)ethanoic acid] |
| 4.82 | O=C(Nc1ccc2c(c1)CCO2)Nc1cc2ccccc2cc1C(=O)N[C@H](C(=O)O)C1CCCCC1 [Example 248, (2S)-cyclohexyl{[(3-{[(2,3-dihydro-1-benzofuran-5-ylamino)carbonyl]amino}-2-naphthalenyl)carbonyl]amino}ethanoic acid] |
| 4.76 | Cc1onc(-c2ccccc2)c1NC(=O)Nc1cc2ccccc2cc1C(=O)N[C@H](C(=O)O)C1CCCCC1 [Example 249, (2S)-cyclohexyl({[3-({[(5-methyl-3-phenyl-4-isoxazolyl)amino]carbonyl}amino)-2-naphthalenyl]carbonyl}amino)ethanoic acid] |
| 5.11 | C[C@@H](C(=O)O)N(Cc1ccccc1)C(=O)c1cc2ccccc2cc1NC(=O)Nc1c(Cl)cccc1Cl [Example 250, N-{[3-({[(2,6-dichlorophenyl)amino]carbonyl}amino)-2-naphthalenyl]carbonyl}-N-(phenylmethyl)-L-alanine] |
| 4.91 | O=C(Nc1cc2ccccc2cc1C(=O)N(Cc1ccccc1)[C@@H](Cc1ccccc1)C(=O)O)Nc1c(Cl)cccc1Cl [Example 251, N-{[3-({[(2,6-dichlorophenyl)amino]carbonyl}amino)-2-naphthalenyl]carbonyl}-N-(phenylmethyl)phenylalanine] |
| 6.19 | CCCCN(CC(=O)O)C(=O)c1cc2ccccc2cc1NC(=O)Nc1c(Cl)cccc1Cl [Example 252, N-butyl-N-{[3-({[(2,6-dichlorophenyl)amino]carbonyl}amino)-2-naphthalenyl]carbonyl}glycine] |
| 6.09 | Cc1cc(C)c(NC(=O)Nc2cc3ccccc3cc2C(=O)N2CCN(C(=O)OC(C)(C)C)C[C@H]2C(=O)O)c(C)c1 [Example 254, (2S)-4-{[(1,1-dimethylethyl)oxy]carbonyl}-1-{[3-({[(2,4,6-trimethylphenyl)amino]carbonyl}amino)-2-naphthalenyl]carbonyl}-2-piperazinecarboxylic acid] |
| 5.59 | O=C(Nc1cc2ccccc2cc1C(=O)N[C@H](C(=O)O)C1CCCCC1)c1ccc(-c2ccc(Cl)cc2Cl)o1 [Example 255, (2S)-cyclohexyl({[3-({[5-(2,4-dichlorophenyl)-2-furanyl]carbonyl}amino)-2-naphthalenyl]carbonyl}amino)ethanoic acid] |
| 4.76 | Cc1cc(C)c(NC(=O)Nc2cc3ccccc3cc2C(=O)N2CCN(S(C)(=O)=O)C[C@H]2C(=O)O)c(C)c1 [Example 256, (2S)-4-(methylsulfonyl)-1-{[3-({[(2,4,6-trimethylphenyl)amino]carbonyl}amino)-2-naphthalenyl]carbonyl}-2-piperazinecarboxylic acid] |
| 4.73 | Cc1cc(C)c(NC(=O)Nc2cc3ccccc3cc2C(=O)N2CCCC[C@H]2C(=O)O)c(C)c1 [Example 257, (2S)-1-{[3-({[(2,4,6-trimethylphenyl)amino]carbonyl}amino)-2-naphthalenyl]carbonyl}-2-piperidinecarboxylic acid] |
| 5.46 | Cc1cc(C)c(NC(=O)Nc2cc3ccccc3cc2C(=O)O)c(C)c1 [Example 263, 3-({[(2,4,6-trimethylphenyl)amino]carbonyl}amino)-2-naphthalenecarboxylic acid] |
